According to patent US20070191336A1 (priority 2003, published 2007):

The compounds below were run against T1, phospho p-38 alpha kinase (Homo sapiens, UniProt Q16539) (assay: P-38 alpha kinase assay (spectrophotometric, pyruvate kinase/lactate dehydrogenase coupled)). Conditions: Table 3; rates from […] to 2 h time frame.
T1 construct: purchased Panvera
Format: biochemical

T1 sequence (Q16539 whole entry): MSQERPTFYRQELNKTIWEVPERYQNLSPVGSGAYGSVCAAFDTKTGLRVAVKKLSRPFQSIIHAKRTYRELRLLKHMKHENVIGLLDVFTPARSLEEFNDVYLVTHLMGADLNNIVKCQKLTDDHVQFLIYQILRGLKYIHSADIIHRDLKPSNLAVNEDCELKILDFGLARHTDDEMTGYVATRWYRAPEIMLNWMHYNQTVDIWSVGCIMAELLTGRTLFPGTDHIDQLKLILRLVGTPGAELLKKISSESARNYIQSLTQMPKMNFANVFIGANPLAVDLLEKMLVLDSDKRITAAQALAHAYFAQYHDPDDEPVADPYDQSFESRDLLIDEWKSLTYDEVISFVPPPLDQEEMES

Q: How did the IC50 turn out when `CC(C)(C)c1cc(NC(=O)Nc2cccc(Cl)c2)n(-c2cccc(CO)c2)n1` [Example 406] was run?
A: 0.0134 µM

Q: How did the IC50 turn out when `CC(C)(C)c1cc(NC(=O)Nc2cccc(Br)c2)n(-c2cccc(CO)c2)n1` [Example 407, 1-{3-t-butyl-1-[3-(hydroxymethyl)phenyl]-1H-pyrazol-5-yl}-3-(3-bromophenyl)urea] was run?
A: 0.0103 µM

Q: With `CC(C)(C)c1cc(NC(=O)Nc2cccc(C(F)(F)F)c2)n(-c2cccc(CO)c2)n1` [Example 408, 1-{3-t-butyl-1-[3-(hydroxymethyl)phenyl]-1H-pyrazol-5-yl}-3-(3-(trifluoromethyl)phenyl)urea] as the compound, how does the IC50 read?
A: 0.116 µM

Q: `COc1cccc(NC(=O)Nc2cc(C(C)(C)C)nn2-c2cccc(CO)c2)c1` [Example 409, 1-{3-t-butyl-1-[3-(hydroxymethyl)phenyl]-1H-pyrazol-5-yl}-3-(3-methoxyphenyl)urea] was tested. Which IC50 did it give?
A: 0.0309 µM

Q: How did the IC50 turn out when `CC(C)(C)c1cc(NC(=O)Nc2cccc(F)c2F)n(-c2ccc(CO)cc2)n1` [Example 418, 1-{3-t-butyl-1-[4-(hydroxymethyl)phenyl]-1H-pyrazol-5-yl}-3-(2,3-difluoro-phenyl)urea] was run?
A: 0.075 µM

Q: How did the IC50 turn out when `CCOC(=O)Cc1ccc(-n2nc(C(C)(C)C)cc2NC(=O)Nc2ccc(Cl)cc2)cc1` [Example 420, ethyl 2-(4-{3-t-butyl-5-[3-(4-chlorophenyl)ureido]-1H-pyrazol-1-yl}phenyl)acetate] was run?
A: 0.0147 µM

Q: With `CCOC(=O)Cc1ccc(-n2nc(C(C)(C)C)cc2NC(=O)Nc2cccc(Cl)c2Cl)cc1` [Example 421] as the compound, how does the IC50 read?
A: 0.0147 µM

Q: `CC(Cc1cccc(-n2nc(C(C)(C)C)cc2NC(=O)Nc2cccc(Cl)c2Cl)c1)C(=O)O` (stereo not drawn) [Example 426, 3-(3-{3-t-butyl-5-[3-(2,3-dichlorophenyl)ureido]-1H-pyrazol-1-yl}-phenyl)-2-methylpropanoic acid] was tested. Which IC50 did it give?
A: 0.013 µM

Q: `CCOC(=O)C(C)Cc1ccc(-n2nc(C(C)(C)C)cc2NC(=O)Nc2cccc3ccccc23)cc1` (stereo not drawn) [Example 427, ethyl 3-(4-{3-t-butyl-5-[3-(naphthalen-1-yl)ureido]-1H-pyrazol-1-yl}phenyl)-2-methylpropanoate] was tested. Which IC50 did it give?
A: 0.819 µM

Q: Which IC50 does the source give for `CC(Cc1ccc(-n2nc(C(C)(C)C)cc2NC(=O)Nc2cccc3ccccc23)cc1)C(=O)O` (stereo not drawn) [Example 428, 3-(4-{3-t-butyl-5-[3-(naphthalen-1-yl)ureido]-1H-pyrazol-1-yl}phenyl)-2-methylpropanoic acid] here?
A: 0.14 µM

Q: With `CCOC(=O)C(C)Cc1ccc(-n2nc(C(C)(C)C)cc2NC(=O)Nc2ccc(Cl)cc2)cc1` (stereo not drawn) [Example 429, ethyl 3-(4-{3-t-butyl-5-[3-(4-chlorophenyl)ureido]-1H-pyrazol-1-yl}phenyl)-2-methylpropanoate] as the compound, how does the IC50 read?
A: 1.07 µM

Q: How did the IC50 turn out when `CC(Cc1ccc(-n2nc(C(C)(C)C)cc2NC(=O)Nc2ccc(Cl)cc2)cc1)C(=O)O` (stereo not drawn) [Example 430, 3-(4-{3-t-butyl-5-[3-(4-chlorophenyl)ureido]-1H-pyrazol-1-yl}phenyl)-2-methylpropanoic acid] was run?
A: 0.942 µM

Q: With `O=C(Nc1ccc(Cl)cc1)Nc1cc(-c2ccccc2)nn1-c1ccc(CO)cc1` [Example 434, 1-(4-chlorophenyl)-3-{1-[4-(hydroxymethyl)phenyl]-3-phenyl-1H-pyrazol-5-yl}-urea] as the compound, how does the IC50 read?
A: 1.9 µM

Q: How did the IC50 turn out when `CC(C)c1cc(NC(=O)Nc2ccc(Cl)cc2)n(-c2ccc(CO)cc2)n1` [Example 438, 1-(4-chlorophenyl)-3-{1-[4-(hydroxymethyl)phenyl]-3-isopropyl-1H-pyrazol-5-yl}-urea] was run?
A: 1.3 µM

Q: With `CC(C)(O)c1cccc(-n2nc(C(F)(F)F)cc2NC(=O)Nc2cccc3ccccc23)c1` [Example 440] as the compound, how does the IC50 read?
A: 0.92 µM

Q: `O=C(Nc1ccc(Cl)cc1)Nc1cc(C(F)(F)F)nn1-c1ccc(CO)cc1` [Example 442, 1-(4-chlorophenyl)-3-{3-(trifluoromethyl)-1-[4-(hydroxyl-methyl)phenyl]-1H-pyrazol-5-yl}urea] was tested. Which IC50 did it give?
A: 3.01 µM

Q: Which IC50 does the source give for `Cc1cc(NC(=O)Nc2cccc3ccccc23)n(-c2cccc(C(C)(C)O)c2)n1` [Example 444, 1-{1-[3-(2-hydroxypropan-2-yl)phenyl]-3-methyl-1H-pyrazol-5-yl}-3-(naphthalen-1-yl)urea] here?
A: 5 µM

Q: For `O=C(Nc1cccc(Cl)c1)Nc1cc(-c2ccccc2)nn1-c1cccc(CO)c1` [Example 455, 1-{3-phenyl-1-[3-(hydroxymethyl)phenyl]-1H-pyrazol-5-yl}-3-(3-chlorophenyl)urea], which IC50 is on record?
A: 0.1 µM

Q: With `O=C(Nc1cccc(Br)c1)Nc1cc(-c2ccccc2)nn1-c1cccc(CO)c1` [Example 456, 1-(3-bromophenyl)-3-{1-[3-(hydroxymethyl)phenyl]-3-phenyl-1H-pyrazol-5-yl}urea] as the compound, how does the IC50 read?
A: 0.04 µM

Q: How did the IC50 turn out when `O=C(Nc1cccc(C(F)(F)F)c1)Nc1cc(-c2ccccc2)nn1-c1cccc(CO)c1` [Example 457, 1-{3-phenyl-1-[3-(hydroxymethyl)phenyl]-1H-pyrazol-5-yl}-3-(3-trifluoromethylphenyl)urea] was run?
A: 1.1 µM

Q: Which IC50 does the source give for `COc1cccc(NC(=O)Nc2cc(-c3ccccc3)nn2-c2cccc(CO)c2)c1` [Example 458, 1-{3-phenyl-1-[3-(hydroxymethyl)phenyl]-1H-pyrazol-5-yl}-3-(3-methoxyphenyl)urea] here?
A: 1 µM

Q: Which IC50 does the source give for `O=C(Nc1cccc(Cl)c1Cl)Nc1cc(-c2ccccc2)nn1-c1cccc(CO)c1` [Example 459, 1-{3-phenyl-1-[3-(hydroxymethyl)phenyl]-1H-pyrazol-5-yl}-3-(2,3-dichlorophenyl)urea] here?
A: 0.02 µM

Q: `CC(C)(C)c1cc(NC(=O)Nc2cccc3ccccc23)n(-c2ccc(CO)cc2)n1` [Example 461, 1-{3-t-butyl-1-[4-(hydroxymethyl)phenyl]-1H-pyrazol-5-yl}-3-(naphthalen-1-yl)urea] was tested. Which IC50 did it give?
A: 0.017 µM

Q: Which IC50 does the source give for `CC(O)c1ccc(-n2nc(C(C)(C)C)cc2NC(=O)Nc2cccc3ccccc23)cc1` (stereo not drawn) [Example 463, 1-{3-t-butyl-1-[4-(1-hydroxyethyl)phenyl]-1H-pyrazol-5-yl}-3-(naphthalen-1-yl)urea] here?
A: 0.056 µM

Q: Which IC50 does the source give for `C#CC(O)c1ccc(-n2nc(C(C)(C)C)cc2NC(=O)Nc2cccc3ccccc23)cc1` (stereo not drawn) [Example 464, 1-{3-t-butyl-1-[4-(1-hydroxyprop-2-ynyl)phenyl]-1H-pyrazol-5-yl}-3-(naphthalen-1-yl)urea] here?
A: 0.019 µM

Q: `CC(C)(C)c1cc(NC(=O)Nc2cccc(Cl)c2Cl)n(-c2ccc(CO)cc2)n1` [Example 466, 1-{3-t-butyl-1-[4-(hydroxymethyl)phenyl]-1H-pyrazol-5-yl}-3-(2,3-dichloro-phenyl)urea] was tested. Which IC50 did it give?
A: 0.007 µM

Q: For `CC(C)(C)c1cc(NC(=O)Nc2cccc(Cl)c2Cl)n(-c2ccc(C(C)(C)O)cc2)n1` [Example 467, 1-{3-t-butyl-1-[4-(2-hydroxypropan-2-yl)phenyl]-1H-pyrazol-5-yl}-3-(2,3-dichlorophenyl)urea], which IC50 is on record?
A: 0.119 µM

Q: `CC(C)(C)c1cc(NC(=O)Nc2cccc(Cl)c2Cl)n(-c2ccc(C(=O)O)cc2)n1` [Example 468, 4-{3-t-butyl-5-[3-(2,3-dichlorophenyl)ureido]-1H-pyrazol-1-yl}benzoic acid] was tested. Which IC50 did it give?
A: 0.0086 µM

Q: How did the IC50 turn out when `CC(O)c1cccc(-n2nc(C(C)(C)C)cc2NC(=O)Nc2cccc3ccccc23)c1` (stereo not drawn) [Example 472, 1-{3-t-butyl-1-[3-(1-hydroxyethyl)phenyl]-1H-pyrazol-5-yl}-3-(naphthalen-1yl)urea] was run?
A: 0.05 µM

Q: For `C#CC(O)c1cccc(-n2nc(C(C)(C)C)cc2NC(=O)Nc2cccc3ccccc23)c1` (stereo not drawn) [Example 473, 1-{3-t-butyl-1-[3-(1-hydroxyprop-2-ynyl)phenyl]-1H-pyrazol-5-yl}-3-(naphthalen-1-yl)urea], which IC50 is on record?
A: 0.004 µM

Q: Which IC50 does the source give for `CCOC(=O)c1cccc(-n2nc(C(C)(C)C)cc2NC(=O)Nc2cccc(Cl)c2Cl)c1` [Example 474, ethyl 3-{3-t-butyl-5-[3-(2,3-dichlorophenyl)ureido]-1H-pyrazol-1-yl}benzoate] here?
A: 0.38 µM

Q: Which IC50 does the source give for `CC(C)(C)c1cc(NC(=O)Nc2cccc(Cl)c2Cl)n(-c2cccc(CO)c2)n1` [Example 475, 1-[3-t-butyl-1-(3-hydroxymethyl-phenyl)-1H-pyrazol-5-yl]-3-(2,3-dichlorophenyl)-urea] here?
A: 0.01 µM

Q: How did the IC50 turn out when `CC(C)(C)c1cc(NC(=O)Nc2cccc(Cl)c2Cl)n(-c2cccc(C(C)(C)O)c2)n1` [Example 476, 1-{3-t-butyl-1-[3-(2-hydroxypropan-2-yl)phenyl]-1H-pyrazol-5-yl}-3-(2,3-dichlorophenyl)urea] was run?
A: 0.024 µM

Q: For `CC(C)(C)c1cc(NC(=O)Nc2cccc(Cl)c2Cl)n(-c2cccc(C(=O)O)c2)n1` [Example 477, 3-{3-t-butyl-5-[3-(2,3-dichlorophenyl)ureido]-1H-pyrazol-1-yl}benzoic acid], which IC50 is on record?
A: 0.042 µM

Same assay, conditions: read-out: % Inhibition @ concentration, Table 3; at 0.1 uM

Q: For `COc1ccc(-n2nc(C(C)(C)C)cc2NC(=O)Nc2cccc(F)c2F)cc1` [Example 415, 1-[3-t-butyl-1-(4-methoxyphenyl)-1H-pyrazol-5-yl]-3-(2,3-difluorophenyl)urea], which inhibition at 0.1 µM is on record?
A: 28%

Q: Which inhibition at 0.1 µM does the source give for `CCOC(=O)CCc1cccc(-n2nc(C(C)C)cc2NC(=O)Nc2ccc(Cl)cc2)c1` [Example 416, ethyl 3-(3-(5-(3-(4-chlorophenyl)ureido)-3-isopropyl-1H-pyrazol-1-yl)phenyl)propanoate] here?
A: 67%

Q: With `CC(C)c1cc(NC(=O)Nc2cccc3ccccc23)n(-c2cccc(C(C)(C)O)c2)n1` [Example 436, 1-{1-[3-(2-hydroxypropan-2-yl)phenyl]-3-isopropyl-1H-pyrazol-5-yl}-3-(naphthalen-1-yl)urea] as the compound, how does the inhibition at 0.1 µM read?
A: 16%

Same assay, conditions: read-out: % Inhibition @ concentration, Table 3; at 1 uM

Q: Which inhibition at 1 µM does the source give for `COc1ccc(-n2nc(C(C)(C)C)cc2NC(=O)Nc2cccc(F)c2F)cc1` [Example 415, 1-[3-t-butyl-1-(4-methoxyphenyl)-1H-pyrazol-5-yl]-3-(2,3-difluorophenyl)urea] here?
A: 69%

Q: With `CCOC(=O)CCc1cccc(-n2nc(C(C)C)cc2NC(=O)Nc2ccc(Cl)cc2)c1` [Example 416, ethyl 3-(3-(5-(3-(4-chlorophenyl)ureido)-3-isopropyl-1H-pyrazol-1-yl)phenyl)propanoate] as the compound, how does the inhibition at 1 µM read?
A: 83%

Q: With `CC(C)(O)c1cccc(-n2nc(-c3ccccc3)cc2NC(=O)Nc2cccc3ccccc23)c1` [Example 432, 1-{1-[3-(2-hydroxypropan-2-yl)phenyl]-3-phenyl-1H-pyrazol-5-yl}-3-(naphthalen-1-yl)urea] as the compound, how does the inhibition at 1 µM read?
A: 9%

Q: `CC(C)c1cc(NC(=O)Nc2cccc3ccccc23)n(-c2cccc(C(C)(C)O)c2)n1` [Example 436, 1-{1-[3-(2-hydroxypropan-2-yl)phenyl]-3-isopropyl-1H-pyrazol-5-yl}-3-(naphthalen-1-yl)urea] was tested. Which inhibition at 1 µM did it give?
A: 41%

Q: How did the inhibition at 1 µM turn out when `Cc1cc(NC(=O)Nc2cccc(Cl)c2Cl)n(-c2ccc(CO)cc2)n1` [Example 450, 1-(2,3-dichlorophenyl)-3-{1-[4-(hydroxymethyl)phenyl]-3-methyl-1H pyrazol-5-yl)urea] was run?
A: 89%

Q: With `Cc1cc(NC(=O)Nc2cccc3ccccc23)n(-c2ccc(C(O)C(F)(F)F)cc2)n1` (stereo not drawn) [Example 451, 1-{3-methyl-1-[4-(2,2,2-trifluoro-1-hydroxyethyl)phenyl]-1H-pyrazol-5-yl}-3-(naphthalen-1-yl)urea] as the compound, how does the inhibition at 1 µM read?
A: 3%

Same assay, conditions: read-out: % Inhibition @ concentration, Table 3; at 10 uM

Q: `CC(C)(O)c1cccc(-n2nc(-c3ccccc3)cc2NC(=O)Nc2cccc3ccccc23)c1` [Example 432, 1-{1-[3-(2-hydroxypropan-2-yl)phenyl]-3-phenyl-1H-pyrazol-5-yl}-3-(naphthalen-1-yl)urea] was tested. Which inhibition at 10 µM did it give?
A: 24%

Q: Which inhibition at 10 µM does the source give for `Cc1cc(NC(=O)Nc2cccc(Cl)c2Cl)n(-c2ccc(CO)cc2)n1` [Example 450, 1-(2,3-dichlorophenyl)-3-{1-[4-(hydroxymethyl)phenyl]-3-methyl-1H pyrazol-5-yl)urea] here?
A: 192%
